# How the values were obtained:
# [1] = system: bone marrow-derived macrophages (BMMs); experiment: LysoTracker Red DND-99 staining in bone marrow-derived macrophages (BMMs); type: cell-based, murine; details: GPN 400 μM or LLOMe, 1 h
# mTOR [2] = experiment: mTOR activity by immunoblotting of S6K1 (T389) and ULK1 (S757) phosphorylation in HEK293T cells; type: cell-based; details: HEK293T cells, full medium, 1 h
# Protocol: (§1) (A) Dose-response analysis of mTOR activity in HEK293T cells treated with glycyl-L-phenylalanine 2-naphththylamide (GPN) in full medium for 1 h. mTOR activity was monitored by inununoblotting analysis of S6K1 (T389) and ULK1 (S757) phosphorylation (phosphorylated S6K (T389) and ULK1 (S757) relative to total S6K and ULK1, respectively). (B) Analysis of mTOR activity (as in A) after GPN washout. HEK293T cells were treated with 100 μM GPN for 1 h followed by 1 h washout in full medium. Data, means±SEM (n=3), **p<0.01, ANOVA. (C) Analysis of mTOR activity (as in A) in HEK293T cells treated with increasing doses of silica in full medium for 1 h. (D) HEK293T cells were treated with lysosomal damaging agents (LLOMe, Leu-Leu-OMe) for 1 h in full medium and status of acidified organelles assessed by quantifying LysoTracker Red DND-99 puncta using automated high-content imaging and analysis (HC). None-treated cells were as control (Ctrl). White masks, algorithm defined cell boundaries (primary objects); yellow masks, computer-identified LysoTracker Red puncta (target objects). Data, means±SEM, n≥3 independent experiments (500 primary objects counted per well; ≥5 wells/sample per each experiment), **p<0.01, ANOVA. (E) Analysis of mTOR activity in primary human macrophages treated with GPN. Human peripheral blood monocyte derived macrophages were treated with 100 μM GPN in full medium or starved in EBSS for 1 h, and mTOR activity measured as in A. None-treated cells were as control (Ctrl). (F) Quantification by HC of overlaps between mTOR and LAMP2 (representative images shown in FIG. S1D) in HeLa cells treated with lysosomal damaging agents for 1 h in full medium. Data, means±SEM, n≥3 independent experiments (500 primary objects counted per well; ≥5 wells/sample per each experiment) **p<0.01, ANOVA. (G) Immunofluorescence confocal microscopy visualization of mTOR localization relative to LAMP2-positive lysosomes. […] (H) Analysis of TFEB nuclear translocation in HeLa cells treated with 100 μM GPN in full medium for 1 h, and the nuclear translocation of TFEB was measured by HC (Nuclei, Hoechst 33342, blue pseudocolor; TFEB red fluorescence, Alexa-568). […] White masks, computer algorithm-defined cell boundaries (primary objects); pink masks, computer-identified nuclear TFEB based on the average intensity of Alexa-568 fluorescence. Data, means±SEM, n≥3 independent experiments (500 primary objects counted per well; ≥5 wells/sample per each experiment), **p<0.01, ANOVA. (I) HeLa cells were treated as indicated in full medium for 1 h, and LC3 puncta were quantified by HC. […] Data, means±SEM, n≥3 independent experiments (500 primary objects counted per well; ≥5 wells/sample per each experiment), **p<0.01, ANOVA. […]
# TFEB = TFEB nuclear translocation by high-content microscopy in HeLa cells; type: cell-based; details: 1 h full medium
# Protocol: (A) Dose-response analysis of mTOR activity in HEK293T cells treated with glycyl-L-phenylalanine 2-naphththylamide (GPN) in full medium for 1 h. mTOR activity was monitored by inununoblotting analysis of S6K1 (T389) and ULK1 (S757) phosphorylation (phosphorylated S6K (T389) and ULK1 (S757) relative to total S6K and ULK1, respectively). (B) Analysis of mTOR activity (as in A) after GPN washout. HEK293T cells were treated with 100 μM GPN for 1 h followed by 1 h washout in full medium. Data, means±SEM (n=3), **p<0.01, ANOVA. (C) Analysis of mTOR activity (as in A) in HEK293T cells treated with increasing doses of silica in full medium for 1 h. (D) HEK293T cells were treated with lysosomal damaging agents (LLOMe, Leu-Leu-OMe) for 1 h in full medium and status of acidified organelles assessed by quantifying LysoTracker Red DND-99 puncta using automated high-content imaging and analysis (HC). […] Data, means±SEM, n≥3 independent experiments (500 primary objects counted per well; ≥5 wells/sample per each experiment), **p<0.01, ANOVA. […] Human peripheral blood monocyte derived macrophages were treated with 100 μM GPN in full medium or starved in EBSS for 1 h, and mTOR activity measured as in A. None-treated cells were as control (Ctrl). […] Data, means±SEM, n≥3 independent experiments (500 primary objects counted per well; ≥5 wells/sample per each experiment) **p<0.01, ANOVA. […]
# mTOR [3] = experiment: mTOR localization relative to LAMP2-positive lysosomes (HC and confocal microscopy); type: cell-based; details: HeLa cells
# Protocol: as §1
smiles,measurement,setting,value
"COC(=O)[C@H](CC(C)C)NC(=O)[C@@H](N)CC(C)C [LLOMe, Leu-Leu-OMe]",LysoTracker Red DND-99 staining in BMMs (lysosomal damage),[1],reduced LysoTracker Red DND-99 staining
same,mTOR activity (phosphorylation of its substrates S6K1 and ULK1),mTOR [2],caused inhibition of mTOR activity
same,TFEB nuclear translocation,TFEB,translocated to the nucleus from the cytoplasm
same,mTOR localization after washout,mTOR [3]; 2 mM LLOMe 1 h followed by 1 h washout,relocalization of mTOR to lysosomes
same,"mTOR localization (lysosomes vs cytosol, overlap with LAMP2)",mTOR [3]; 1 h full medium,translocated from lysosomes to the cytosol

# Reference: patent US20210069295A1, “GALECTINS CONTROL MTOR IN RESPONSE TO ENDOMEMBRANE DAMAGE AND PROVIDE A MECHANISM AND TARGET FOR THE TREATMENT OF AUTOPHAGY-RELATED DISEASES” (STC. UNM, priority 2017, published 2021)
